Reference: US9556237B2 (priority 2012, dated 2017)
Peptide text beside a SMILES is read from it.

System: Vero E6 cells

CSCC[C@H](N)C(=O)N[C@@H](Cc1ccccc1)C(=O)N[C@@H](CC(C)C)C(=O)NCC(=O)N[C@@H](Cc1c[nH]c2ccccc12)C(=O)N[C@@H](CO)C(=O)N[C@@H](Cc1ccccc1)C(=O)N[C@@H](CC(=O)O)C(=O)N[C@@H](Cc1ccccc1)C(=O)NCC(=O)N[C@@H](CO)C(=O)N[C@@H](CC(C)C)C(=O)N[C@@H](Cc1c[nH]c2ccccc12)C(=O)NCC(=O)N[C@@H](CC(N)=O)C(=O)N[C@@H](CCCCN)C(=O)N1CCC[C@H]1C(=O)N[C@@H](Cc1c[nH]c2ccccc12)C(=O)N[C@@H](Cc1ccccc1)C(=O)O [RVFV-6sc, MFLGWSFDFGSLWGNKPWF, reference compound] (H-MFLGWSFDFGSLWGNKPWF-OH)
impact on cell proliferation (MTT assay): little negative impact on cell proliferation
